From US20240400564A1 (Syndax Pharmaceuticals, Inc, priority 2021, published 2024) come the findings set out here.

The series concerns the target hERG (Homo sapiens, UniProt Q12809). Put plainly: Patch clamp assay (hERG tail currents, whole-cell). A general note: The patch-clamp technique gives a direct electrical read-out from membranes.

Sequence of hERG (Q12809 whole entry): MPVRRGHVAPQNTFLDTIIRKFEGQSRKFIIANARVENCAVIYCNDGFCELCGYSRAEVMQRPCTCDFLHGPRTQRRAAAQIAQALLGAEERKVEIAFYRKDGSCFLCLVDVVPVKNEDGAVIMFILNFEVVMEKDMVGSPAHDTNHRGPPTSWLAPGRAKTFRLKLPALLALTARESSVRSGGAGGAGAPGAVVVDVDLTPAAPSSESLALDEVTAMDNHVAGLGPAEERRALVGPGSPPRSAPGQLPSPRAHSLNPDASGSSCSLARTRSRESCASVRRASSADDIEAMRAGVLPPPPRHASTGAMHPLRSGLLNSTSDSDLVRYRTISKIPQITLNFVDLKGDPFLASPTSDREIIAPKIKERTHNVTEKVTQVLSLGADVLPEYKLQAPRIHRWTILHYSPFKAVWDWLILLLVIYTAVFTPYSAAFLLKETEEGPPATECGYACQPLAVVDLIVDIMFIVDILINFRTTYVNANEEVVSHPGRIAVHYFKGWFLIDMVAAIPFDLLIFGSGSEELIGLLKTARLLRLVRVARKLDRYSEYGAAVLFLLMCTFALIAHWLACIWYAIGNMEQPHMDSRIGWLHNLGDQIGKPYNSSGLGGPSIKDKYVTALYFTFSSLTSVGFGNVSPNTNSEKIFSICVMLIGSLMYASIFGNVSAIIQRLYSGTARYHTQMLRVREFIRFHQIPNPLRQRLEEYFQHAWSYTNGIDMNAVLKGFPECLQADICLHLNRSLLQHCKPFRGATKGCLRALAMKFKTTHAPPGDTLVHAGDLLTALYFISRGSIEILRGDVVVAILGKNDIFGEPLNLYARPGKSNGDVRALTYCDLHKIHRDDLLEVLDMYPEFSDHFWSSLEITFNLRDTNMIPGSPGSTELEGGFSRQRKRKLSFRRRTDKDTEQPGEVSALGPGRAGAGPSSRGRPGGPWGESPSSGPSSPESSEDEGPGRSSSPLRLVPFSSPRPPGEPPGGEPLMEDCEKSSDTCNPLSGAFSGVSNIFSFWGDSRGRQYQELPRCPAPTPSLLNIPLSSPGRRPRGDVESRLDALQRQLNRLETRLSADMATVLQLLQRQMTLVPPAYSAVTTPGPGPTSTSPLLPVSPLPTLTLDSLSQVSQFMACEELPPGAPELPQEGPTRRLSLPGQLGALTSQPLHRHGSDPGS

As to `CNS(=O)(=O)N[C@@H]1CC[C@@H](CN2CCC3(CC2)CN(c2ncncc2Oc2ccc(F)cc2C(=O)N(C(C)C)C2CC(F)(F)C2)C3)OC1` [Example 154, N-(3,3-Difluorocyclobutyl)-5-fluoro-N-isopropyl-2-((4-(7-(((2S,5R)-5-((N-methylsulfamoyl)amino)tetrahydro-2H-pyran-2-yl)methyl)-2,7-diazaspiro[3.5]nonan-2-yl)pyrimidin-5-yl)oxy)benzamide], the “hERG % Remaining” value runs as follows: (10 μM compound) “+++ (≥66%)”; (30 μM compound) “++ (233% and ≤66%)”. Regarding `CCNS(=O)(=O)N[C@@H]1CC[C@@H](CN2CCC3(CC2)CN(c2ncncc2Oc2ccc(F)cc2C(=O)N(C(C)C)C2CC(F)(F)C2)C3)OC1` [Example 155, N-(3,3-Difluorocyclobutyl)-2-((4-(7-(((2S,5R)-5-((N-ethylsulfamoyl)amino)tetrahydro-2H-pyran-2-yl)methyl)-2,7-diazaspiro[3.5]nonan-2-yl)pyrimidin-5-yl)oxy)-5-fluoro-N-isopropylbenzamide], the “hERG % Remaining” value is, setting by setting: (10 μM compound) “+++ (≥66%)”; (30 μM compound) “++ (233% and ≤66%)”.

On to `C[C@@H]1COC[C@@H](C)N1C(=O)c1cc(F)ccc1Oc1cncnc1N1CC2(CCN(C[C@@H]3CC[C@@H](NS(=O)(=O)NCC4CC4)CO3)CC2)C1` [Example 158, (Cyclopropylmethyl)({[(3R,6S)-6-{[2-(5-{2-[(3R,5R)-3,5-dimethylmorpholine-4-carbonyl]-4-fluorophenoxy}pyrimidin-4-yl)-2,7-diazaspiro[3.5]nonan-7-yl]methyl}oxan-3-yl]sulfamoyl})amine], for which the “hERG % Remaining” value (30 μM compound) is given as “+++ (≥66%)”.

Turning to `C[C@@H]1COC[C@H](C)N1C(=O)c1cc(F)ccc1Oc1cncnc1N1CC2(CCN(C[C@@H]3CC[C@@H](NS(=O)(=O)N4CCC4)CO3)CC2)C1` [Example 161, N-((3R,6S)-6-((2-(5-(2-((3R,5S)-3,5-Dimethylmorpholine-4-carbonyl)-4-fluorophenoxy)pyrimidin-4-yl)-2,7-diazaspiro[3.5]nonan-7-yl)methyl)tetrahydro-2H-pyran-3-yl)azetidine-1-sulfonamide], the “hERG % Remaining” value (30 μM compound) is listed as “+++ (≥66%)”. Turning to `CC(C)N(C(=O)c1cc(F)ccc1Oc1cncnc1N1CC2(CCN(C[C@@H]3CC[C@@H](NS(=O)(=O)C4CC4)CO3)CC2)C1)[C@@H]1CCOC1` [Example 164, 2-((4-(7-(((2S,5R)-5-(Cyclopropanesulfonamido)tetrahydro-2H-pyran-2-yl)methyl)-2,7-diazaspiro[3.5]nonan-2-yl)pyrimidin-5-yl)oxy)-5-fluoro-N-isopropyl-N-((R)-tetrahydrofuran-3-yl)benzamide], the “hERG % Remaining” value (10 μM compound) is reported as “+++ (≥66%)” and the “hERG % Remaining” value (30 μM compound) is listed as “+++ (≥66%)”. With `CCN(CC)S(=O)(=O)N[C@@H]1CC[C@@H](CN2CCC3(CC2)CN(c2ncncc2Oc2ccc(F)cc2C(=O)N(C(C)C)[C@@H]2CCOC2)C3)OC1` [Example 165, 2-((4-(7-(((2S,5R)-5-((N,N-Diethylsulfamoyl)amino)tetrahydro-2H-pyran-2-yl)methyl)-2,7-diazaspiro[3.5]nonan-2-yl)pyrimidin-5-yl)oxy)-5-fluoro-N-isopropyl-N-((R)-tetrahydrofuran-3-yl)benzamide], the “hERG % Remaining” value by setting is: (10 μM compound) “+++ (≥66%)”; (30 μM compound) “++ (233% and ≤66%)”. Turning to `CC(C)N(C(=O)c1cc(F)ccc1Oc1cncnc1N1CC2(CCN(C[C@@H]3CC[C@@H](NS(=O)(=O)N(C)C)CO3)CC2)C1)[C@@H]1CCOC1` [Example 167, 2-((4-(7-(((2S,5R)-5-((N,N-Dimethylsulfamoyl)amino)tetrahydro-2H-pyran-2-yl)methyl)-2,7-diazaspiro[3.5]nonan-2-yl)pyrimidin-5-yl)oxy)-5-fluoro-N-isopropyl-N-((R)-tetrahydrofuran-3-yl)benzamide], the “hERG % Remaining” value (30 μM compound) is listed as “+++ (≥66%)” and the “hERG % Remaining” value (100 μM compound) is on record as “+++ (≥66%)”. `CCN(CC)S(=O)(=O)N[C@@H]1CC[C@@H](CN2CCC3(CC2)CN(c2ncncc2Oc2ccc(F)cc2C(=O)N(C(C)C)[C@H]2CCOC2)C3)OC1` [Example 175, 2-((4-(7-(((2S,5R)-5-((N,N-Diethylsulfamoyl)amino)tetrahydro-2H-pyran-2-yl)methyl)-2,7-diazaspiro[3.5]nonan-2-yl)pyrimidin-5-yl)oxy)-5-fluoro-N-isopropyl-N-((S)-tetrahydrofuran-3-yl)benzamide]: the “hERG % Remaining” value is “++ (233% and ≤66%)” (10 μM compound); “+ (<33%)” (30 μM compound). `CC(C)N(CC#N)C(=O)c1cc(F)ccc1Oc1cncnc1N1CC2(CCN(C[C@@H]3CC[C@@H](NS(=O)(=O)N(C)C)CO3)CC2)C1` [Example 181, N-(Cyanomethyl)-2-((4-(7-(((2S,5R)-5-((N,N-dimethylsulfamoyl)amino)tetrahydro-2H-pyran-2-yl)methyl)-2,7-diazaspiro[3.5]nonan-2-yl)pyrimidin-5-yl)oxy)-5-fluoro-N-isopropylbenzamide]: the “hERG % Remaining” value (30 μM compound) was “+++ (≥66%)”.

For `CC(C)N(CC#N)C(=O)c1cc(F)ccc1Oc1cncnc1N1CC2(CCN(C[C@@H]3CC[C@@H](NS(=O)(=O)N4CCC4)CO3)CC2)C1` [Example 182, 2-((4-(7-(((2S,5R)-5-(Azetidine-1-sulfonamido)tetrahydro-2H-pyran-2-yl)methyl)-2,7-diazaspiro[3.5]nonan-2-yl)pyrimidin-5-yl)oxy)-N-(cyanomethyl)-5-fluoro-N-isopropylbenzamide], under “30 μM compound”, the “hERG % Remaining” value was “+++ (≥66%)”.

With `CC(C)N(CCC#N)C(=O)c1cc(F)ccc1Oc1cncnc1N1CC2(CCN(C[C@@H]3CC[C@@H](NS(=O)(=O)N(C)C)CO3)CC2)C1` [Example 183, N-(2-Cyanoethyl)-2-((4-(7-(((2S,5R)-5-((N,N-dimethylsulfamoyl)amino)tetrahydro-2H-pyran-2-yl)methyl)-2,7-diazaspiro[3.5]nonan-2-yl)pyrimidin-5-yl)oxy)-5-fluoro-N-isopropylbenzamide], the “hERG % Remaining” value (30 μM compound) is recorded as “+++ (≥66%)”.

Take `CC(C)N(CC(F)F)C(=O)c1cc(F)ccc1Oc1nncnc1N1CC2(CCN(C[C@@H]3CC[C@@H](NS(=O)(=O)N4CCC4)CO3)CC2)C1` [Example 189, 2-((5-(7-(((2S,5R)-5-(Azetidine-1-sulfonamido)tetrahydro-2H-pyran-2-yl)methyl)-2,7-diazaspiro[3.5]nonan-2-yl)-1,2,4-triazin-6-yl)oxy)-N-(2,2-difluoroethyl)-5-fluoro-N-isopropylbenzamide]: the “hERG % Remaining” value (30 μM compound) is “+++ (≥66%)”. Take `CC(C)N(C(=O)c1cc(F)ccc1Oc1nncnc1N1CC2(CCN(C[C@@H]3CC[C@@H](NS(=O)(=O)C4CC4)CO3)CC2)C1)C(C)C` [Example 196, 2-((5-(7-(((2S,5R)-5-(Cyclopropanesulfonamido)tetrahydro-2H-pyran-2-yl)methyl)-2,7-diazaspiro[3.5]nonan-2-yl)-1,2,4-triazin-6-yl)oxy)-5-fluoro-N,N-diisopropylbenzamide]: the “hERG % Remaining” value (30 μM compound) is “+++ (≥66%)”.

As for `CCNS(=O)(=O)N[C@@H]1CC[C@@H](CN2CCC3(CC2)CN(c2ncnnc2Oc2ccc(F)cc2C(=O)N(C(C)C)C(C)C)C3)OC1` [Example 198, 2-((5-(7-(((2S,5R)-5-((N-Ethylsulfamoyl)amino)tetrahydro-2H-pyran-2-yl)methyl)-2,7-diazaspiro[3.5]nonan-2-yl)-1,2,4-triazin-6-yl)oxy)-5-fluoro-N,N-diisopropylbenzamide], the “hERG % Remaining” value (30 μM compound) is “+++ (≥66%)”.

As for `CC(C)N(C(=O)c1cc(F)ccc1Oc1nncnc1N1CC2(CCN(C[C@@H]3CC[C@@H](NS(=O)(=O)N4CCC4)CO3)CC2)C1)C(C)C` [Example 199, 2-((5-(7-(((2S,5R)-5-(Azetidine-1-sulfonamido)tetrahydro-2H-pyran-2-yl)methyl)-2,7-diazaspiro[3.5]nonan-2-yl)-1,2,4-triazin-6-yl)oxy)-5-fluoro-N,N-diisopropylbenzamide], the “hERG % Remaining” value (30 μM compound) is “+++ (≥66%)”. Turning to `C[C@@H]1COC[C@@H](C)N1C(=O)c1cc(F)ccc1Oc1cncnc1N1CC2(CCN(C[C@@H]3CC[C@@H](NS(=O)(=O)N4CCC[C@@H]4C)CO3)CC2)C1` [Example 209, (S)-N-((3R,6S)-6-((2-(5-(2-((3R,5R)-3,5-Dimethylmorpholine-4-carbonyl)-4-fluorophenoxy)pyrimidin-4-yl)-2,7-diazaspiro[3.5]nonan-7-yl)methyl)tetrahydro-2H-pyran-3-yl)-2-methylpyrrolidine-1-sulfonamide], the “hERG % Remaining” value (30 μM compound) is recorded as “+++ (≥66%)”. Regarding `CC(C)N(CC(F)F)C(=O)c1cc(F)ccc1Oc1cncnc1N1CC2(CCN(C[C@@H]3CC[C@@H](NS(=O)(=O)N(C)CCCO)CO3)CC2)C1` [Example 214, N-(2,2-difluoroethyl)-5-fluoro-2-((4-(7-(((2S,5R)-5-((N-(3-hydroxypropyl)-N-methylsulfamoyl)amino)tetrahydro-2H-pyran-2-yl)methyl)-2,7-diazaspiro[3.5]nonan-2-yl)pyrimidin-5-yl)oxy)-N-isopropylbenzamide], the “hERG % Remaining” value (30 μM compound) is listed as “+++ (≥66%)”. Still for that read-out and setting: the same measure for `CC(C)N(C(=O)c1cc(F)ccc1Oc1cncnc1N1CC2(CCN(C[C@@H]3CC[C@@H](NS(=O)(=O)N4CC5(CCOC5)C4)CO3)CC2)C1)C(C)C` [Example 223, 2-((4-(7-(((2S,5R)-5-(6-Oxa-2-azaspiro[3.4]octane-2-sulfonamido)tetrahydro-2H-pyran-2-yl)methyl)-2,7-diazaspiro[3.5]nonan-2-yl)pyrimidin-5-yl)oxy)-5-fluoro-N,N-diisopropylbenzamide]: “+++ (≥66%)”. In the case of `CC(C)N(CC(F)F)C(=O)c1cc(F)ccc1Oc1cncnc1N1CC2(CCN(C[C@@H]3CC[C@@H](NS(=O)(=O)N(C)CCO)CO3)CC2)C1` [Example 239, N-(2,2-difluoroethyl)-5-fluoro-2-((4-(7-(((2S,5R)-5-((N-(2-hydroxyethyl)-N-methylsulfamoyl)amino)tetrahydro-2H-pyran-2-yl)methyl)-2,7-diazaspiro[3.5]nonan-2-yl)pyrimidin-5-yl)oxy)-N-isopropylbenzamide], the “hERG % Remaining” value (30 μM compound) is “+++ (≥66%)”. The same measure, in the same setting: the same measure for `CC(C)N(CC(F)F)C(=O)c1cc(F)ccc1Oc1cncnc1N1CC2(CCN(C[C@@H]3CC[C@@H](NS(N)(=O)=O)CO3)CC2)C1` [Example 240, N-(2,2-Difluoroethyl)-5-fluoro-N-isopropyl-2-((4-(7-(((2S,5R)-5-(sulfamoylamino)tetrahydro-2H-pyran-2-yl)methyl)-2,7-diazaspiro[3.5]nonan-2-yl)pyrimidin-5-yl)oxy)benzamide]: “+++ (≥66%)”.
